Activity calls are given as the source filed them.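 The calls were made as follows: active = cytotoxic compounds, leaving cell viability under 88%; inactive = viability at or above 88%.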
What follows are compounds tested on U937 viability, trypan blue exclusion, 24 h (assay: U937 cell viability loss by dye exclusion – trypan blue, cytotoxicity control for VLA-4 allosteric modulator project (AID 588370)). Conditions: at 10 µM; hits give low values.

Row | SMILES | viability
1 | c1ccc2c(-c3ccc(OCCN4CCCC4)cc3)c(-c3ccsc3)sc2c1 | 93% (inactive)
2 | c1ccc(-c2sc3ccccc3c2-c2ccc(OCCN3CCCC3)cc2)cc1 | 97% (inactive)
3 | COc1cccc(-c2sc3ccccc3c2-c2ccc(OCCN(C)C)cc2)c1 | 97% (inactive)
4 | COc1cccc(-c2sc3ccccc3c2-c2ccc(OCCN3CCCC3)cc2)c1 | 84%
5 | COc1ccc(-c2sc3ccccc3c2-c2ccc(OCCN(C)C)cc2)cc1 | 96% (inactive)
6 | CN(C)CCOc1ccc(-c2c(-c3ccccc3)sc3ccccc23)cc1 | 97% (inactive)
7 | c1ccc2c(-c3ccc(OCCN4CCCCC4)cc3)c(-c3ccsc3)sc2c1 | 96% (inactive)

Reference: PubChem BioAssay AID588370 (NMMLSC, 2011)
